Measured values as given in ChEMBL document CHEMBL2073981, “Differential regulation of multidrug resistance-associated protein 2 (MRP2) and cytochromes P450 2B1/2 and 3A1/2 in phenobarbital-treated hepatocytes” (Biochem Pharmacol, 2002).

Key:
[1] = biological target: T1, ATP-binding cassette sub-family C member 2 (Rattus norvegicus, UniProt Q63120); assay: (§1) TP_TRANSPORTER: Northern blot in vitro, primary hepatocytes; assay type: functional, cell-based, Hepatocyte
[2] = biological target: T2, ATP-binding cassette sub-family C member 2 (Homo sapiens, UniProt Q92887); assay: as §1; assay type: functional, cell-based, Hepatocyte
[3] = biological target: T1, ATP-binding cassette sub-family C member 2; assay: (§2) TP_TRANSPORTER: Western in vitro, primary hepatocytes; assay type: functional, cell-based, Hepatocyte
[4] = biological target: T2, ATP-binding cassette sub-family C member 2; assay: as §2; assay type: functional, cell-based, Hepatocyte
[5] = biological target: Multidrug resistance protein 1a (Rattus norvegicus) (UniProt Q6PSM0); assay: as §1; assay type: functional, cell-based; settings: Hepatocyte
[6] = biological target: T1, ATP-binding cassette sub-family C member 2; assay: TP_TRANSPORTER: Northern blot in vivo SD rat, liver; assay type: functional, organism-based, Sprague-Dawley

T1 sequence (Q63120 whole entry): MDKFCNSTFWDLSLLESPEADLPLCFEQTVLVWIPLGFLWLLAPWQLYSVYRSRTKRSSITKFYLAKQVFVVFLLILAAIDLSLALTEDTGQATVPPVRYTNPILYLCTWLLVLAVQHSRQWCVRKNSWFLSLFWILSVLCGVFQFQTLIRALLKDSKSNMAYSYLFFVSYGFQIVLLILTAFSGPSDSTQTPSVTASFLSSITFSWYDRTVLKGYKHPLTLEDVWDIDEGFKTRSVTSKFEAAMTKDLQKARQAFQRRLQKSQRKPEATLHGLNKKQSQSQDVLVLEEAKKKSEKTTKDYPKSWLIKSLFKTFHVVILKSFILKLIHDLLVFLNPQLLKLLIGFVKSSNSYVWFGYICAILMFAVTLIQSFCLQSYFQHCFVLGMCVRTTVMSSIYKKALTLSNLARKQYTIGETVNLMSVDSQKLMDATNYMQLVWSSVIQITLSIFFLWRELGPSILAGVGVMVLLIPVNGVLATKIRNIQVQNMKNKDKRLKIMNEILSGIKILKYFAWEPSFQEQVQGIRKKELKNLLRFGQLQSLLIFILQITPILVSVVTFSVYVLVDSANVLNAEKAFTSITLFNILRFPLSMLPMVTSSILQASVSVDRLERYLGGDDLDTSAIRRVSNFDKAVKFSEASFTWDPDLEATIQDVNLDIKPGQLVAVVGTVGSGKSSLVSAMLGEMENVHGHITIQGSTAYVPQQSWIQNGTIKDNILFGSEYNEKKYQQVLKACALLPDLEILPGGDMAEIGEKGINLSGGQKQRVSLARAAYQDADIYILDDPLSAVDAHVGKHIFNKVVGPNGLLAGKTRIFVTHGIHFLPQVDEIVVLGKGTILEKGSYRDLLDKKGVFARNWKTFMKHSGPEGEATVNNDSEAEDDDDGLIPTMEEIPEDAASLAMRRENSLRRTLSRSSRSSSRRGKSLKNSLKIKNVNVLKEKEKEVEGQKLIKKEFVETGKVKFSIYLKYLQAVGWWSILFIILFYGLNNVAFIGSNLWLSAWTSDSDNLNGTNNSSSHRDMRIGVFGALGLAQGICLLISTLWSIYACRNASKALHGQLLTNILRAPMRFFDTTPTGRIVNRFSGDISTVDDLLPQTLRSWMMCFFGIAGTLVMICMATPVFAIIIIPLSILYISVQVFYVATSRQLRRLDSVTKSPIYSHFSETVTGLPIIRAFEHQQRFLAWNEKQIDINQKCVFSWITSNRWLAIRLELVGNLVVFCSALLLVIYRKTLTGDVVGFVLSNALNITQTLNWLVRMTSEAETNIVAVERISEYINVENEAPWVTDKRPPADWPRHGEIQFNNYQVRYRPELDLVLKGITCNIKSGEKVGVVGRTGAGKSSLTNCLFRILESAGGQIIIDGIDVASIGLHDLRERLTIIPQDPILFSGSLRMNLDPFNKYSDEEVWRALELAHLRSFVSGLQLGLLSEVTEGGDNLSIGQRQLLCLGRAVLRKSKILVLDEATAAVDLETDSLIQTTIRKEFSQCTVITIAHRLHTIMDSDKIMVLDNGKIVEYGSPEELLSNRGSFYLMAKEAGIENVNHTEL
T2 sequence (Q92887 whole entry): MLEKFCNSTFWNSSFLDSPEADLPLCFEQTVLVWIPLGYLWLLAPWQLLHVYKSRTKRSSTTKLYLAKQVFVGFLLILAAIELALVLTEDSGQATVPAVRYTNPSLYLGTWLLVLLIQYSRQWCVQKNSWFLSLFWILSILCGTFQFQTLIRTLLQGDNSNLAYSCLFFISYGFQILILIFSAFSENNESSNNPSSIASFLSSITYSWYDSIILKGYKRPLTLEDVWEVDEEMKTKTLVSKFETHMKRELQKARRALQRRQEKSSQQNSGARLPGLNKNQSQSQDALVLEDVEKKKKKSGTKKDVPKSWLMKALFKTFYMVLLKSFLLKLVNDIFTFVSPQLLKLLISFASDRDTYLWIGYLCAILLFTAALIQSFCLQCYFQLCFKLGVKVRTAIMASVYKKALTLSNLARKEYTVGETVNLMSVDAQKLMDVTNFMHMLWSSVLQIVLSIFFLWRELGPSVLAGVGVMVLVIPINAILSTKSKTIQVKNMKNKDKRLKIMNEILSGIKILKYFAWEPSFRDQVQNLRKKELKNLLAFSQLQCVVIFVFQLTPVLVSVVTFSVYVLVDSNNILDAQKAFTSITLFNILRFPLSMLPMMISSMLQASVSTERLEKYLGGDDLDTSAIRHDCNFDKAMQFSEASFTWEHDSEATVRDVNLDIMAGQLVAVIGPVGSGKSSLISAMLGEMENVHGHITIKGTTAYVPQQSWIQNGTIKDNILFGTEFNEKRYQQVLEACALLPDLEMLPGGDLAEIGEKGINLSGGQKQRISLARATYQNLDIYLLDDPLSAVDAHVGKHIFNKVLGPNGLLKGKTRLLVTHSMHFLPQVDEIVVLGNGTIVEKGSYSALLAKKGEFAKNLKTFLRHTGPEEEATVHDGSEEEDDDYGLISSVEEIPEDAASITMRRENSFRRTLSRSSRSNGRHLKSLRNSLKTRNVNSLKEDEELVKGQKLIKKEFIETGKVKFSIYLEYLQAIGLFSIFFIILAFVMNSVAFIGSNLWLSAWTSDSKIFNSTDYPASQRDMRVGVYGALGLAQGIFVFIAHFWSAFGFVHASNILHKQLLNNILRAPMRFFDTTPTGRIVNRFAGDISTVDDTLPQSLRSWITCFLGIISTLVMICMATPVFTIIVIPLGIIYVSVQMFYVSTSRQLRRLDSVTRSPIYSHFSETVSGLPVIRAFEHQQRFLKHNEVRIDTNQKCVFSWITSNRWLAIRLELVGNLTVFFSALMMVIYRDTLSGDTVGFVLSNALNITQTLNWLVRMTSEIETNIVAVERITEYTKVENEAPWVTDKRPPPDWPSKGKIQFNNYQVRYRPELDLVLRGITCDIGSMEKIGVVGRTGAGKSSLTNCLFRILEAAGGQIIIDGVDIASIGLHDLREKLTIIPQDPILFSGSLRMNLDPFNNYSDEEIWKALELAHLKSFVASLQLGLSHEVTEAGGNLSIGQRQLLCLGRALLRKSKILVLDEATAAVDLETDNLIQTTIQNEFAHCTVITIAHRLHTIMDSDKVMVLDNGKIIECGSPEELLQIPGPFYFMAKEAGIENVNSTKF
Sequence of Multidrug resistance protein 1a (Rattus norvegicus) (Q6PSM0 as listed by the source): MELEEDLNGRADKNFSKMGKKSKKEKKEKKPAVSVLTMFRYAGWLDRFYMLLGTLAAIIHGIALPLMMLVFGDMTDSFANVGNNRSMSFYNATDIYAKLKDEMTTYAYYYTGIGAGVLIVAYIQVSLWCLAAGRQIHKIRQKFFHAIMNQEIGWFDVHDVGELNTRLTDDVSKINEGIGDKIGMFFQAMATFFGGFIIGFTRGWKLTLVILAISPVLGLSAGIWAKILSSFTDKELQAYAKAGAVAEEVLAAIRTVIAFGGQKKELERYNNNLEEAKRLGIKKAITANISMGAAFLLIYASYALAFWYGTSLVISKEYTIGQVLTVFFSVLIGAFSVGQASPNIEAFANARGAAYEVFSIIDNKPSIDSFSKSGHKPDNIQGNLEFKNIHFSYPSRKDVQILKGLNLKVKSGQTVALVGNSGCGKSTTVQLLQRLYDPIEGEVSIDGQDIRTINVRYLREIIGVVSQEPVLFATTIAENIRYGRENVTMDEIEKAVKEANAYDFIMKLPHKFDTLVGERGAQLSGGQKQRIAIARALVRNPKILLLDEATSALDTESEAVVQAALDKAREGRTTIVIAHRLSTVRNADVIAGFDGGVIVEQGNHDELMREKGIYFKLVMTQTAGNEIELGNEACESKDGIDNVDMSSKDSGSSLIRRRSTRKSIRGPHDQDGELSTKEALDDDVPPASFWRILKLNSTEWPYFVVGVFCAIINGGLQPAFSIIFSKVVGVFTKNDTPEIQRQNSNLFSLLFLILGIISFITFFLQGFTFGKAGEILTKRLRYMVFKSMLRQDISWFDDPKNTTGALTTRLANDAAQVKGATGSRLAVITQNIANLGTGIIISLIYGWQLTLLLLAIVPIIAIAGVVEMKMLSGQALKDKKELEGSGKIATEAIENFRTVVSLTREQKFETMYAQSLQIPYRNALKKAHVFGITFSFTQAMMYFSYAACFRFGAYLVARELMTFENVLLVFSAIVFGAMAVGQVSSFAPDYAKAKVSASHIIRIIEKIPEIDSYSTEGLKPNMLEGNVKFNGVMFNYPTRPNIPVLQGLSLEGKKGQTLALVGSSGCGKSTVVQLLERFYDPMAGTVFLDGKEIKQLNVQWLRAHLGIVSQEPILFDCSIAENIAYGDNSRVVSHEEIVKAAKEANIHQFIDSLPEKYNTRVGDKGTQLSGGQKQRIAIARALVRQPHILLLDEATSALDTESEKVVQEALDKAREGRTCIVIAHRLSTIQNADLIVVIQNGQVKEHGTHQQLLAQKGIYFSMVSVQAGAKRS

For CCC1(c2ccccc2)C(=O)NC(=O)NC1=O [PHENOBARBITAL], the Activity [1] was “inducer [+]”, the Activity [2] was “inducer [+]” and the Activity [3] was “inducer [+]”. The Activity [4] was “inducer [+]”, the Activity [5] was “is not an inducer [-]” and the Activity [6] was “is not an inducer [-]”.
